Tested on: NF-κB
Test: Test of the potency of NF-κB activation suppression (gel shift assay, UVB-irradiated human epidermal cells)
Assay type: cell-based
Details: added 18 h before UVB 50 mJ/cm^2, nuclear protein 4 to 5 hours later
Description: Test compounds shown in Table 1 were added individually to human epidermal cells at confluency in a culture plate. 18 hours later, the culture broth was exchanged with a phenol red-free culture medium. Using Dermalei M-DMR-80 (manufactured by Toshiba Medical Supplies, Co., Ltd.), the cells were irradiated with an ultraviolet ray (UVB: 50 mJ/cm^2). 4 to 5 hours later, the cells were recovered and the nuclear protein was extracted using a general method. By using a gel shift assay method, the activated NF-κB in the resulting nuclear protein was detected. Determination of NF-κB was conducted based on counting the radioactivity of labeled NF-κB using a bioimaging analyzer BAS2000 (manufactured by Fuji Film Co., Ltd.). The ratio of NF-κB activation suppression by the inventive compounds compared with a test compound was calculated by the following formula (1). Ratio (%) of NF-κB activation suppression=[1-(A1−A3)/(A2−A3)]×100 (1)
A1: radioactivity of NF-κB band with addition of test compound
A2: radioactivity of NF-κB band without addition of test compound
A3: radioactivity of NF-κB band without addition of test compound and without ultraviolet irradiation

Q: Which “Suppression ratio (%) of NF-κB activation” value (“Suppression ratio (%)” below) (test compound 10 mM) does the source give for O=C(O)[C@H](CO)NCc1ccccc1O [N-(2-Hydroxybenzyl)-L-serine] here?
A: Its value is 17%.

Q: What about the “Suppression ratio (%)” value (test compound 30 mM) of the same compound?
A: The value was 34%.

Q: What does the source list for O=C(O)[C@H](CSSC[C@H](NCc1ccccc1O)C(=O)O)NCc1ccccc1O [N,N′-Bis(2-hydroxybenzyl)-L-cystine]?
A: Suppression ratio (%) of NF-κB activation (test compound 0.1 mM): 41%; Suppression ratio (%) of NF-κB activation (test compound 0.5 mM): 86%; Suppression ratio (%) of NF-κB activation (test compound 1.0 mM): > 100%

Q: Which “Suppression ratio (%)” value (test compound 10 mM) does the source give for CC(=O)N[C@@H](CSSC[C@H](NC(C)=O)C(=O)O)C(=O)O [N,N′-Diacetyl-L-cystine] here?
A: Its value is 48%.

Q: What about the “Suppression ratio (%)” value (test compound 30 mM) of the same compound?
A: The value was 67%.
